Measurements taken from patent EP0014443B1, “Dilutable alkyl-benzimidazolecarbamate formulation, process for its preparation and its use as biocide” (RIEDEL-DE HAEN AKTIENGESELLSCHAFT, priority 1979, dated 1980).
Values after ≈ are worked out from the molar mass of the structure shown. Where two headings read alike, the source gives them in different places.

Key:
holzverblauende Pilze = assay: Münden strip method (Mündener Streifenmethode) on wood against blue-stain fungi; conditions: in usual wood preservative formulation (alkyd resin, Testbenzin 60); 25 GT product of Beispiel 1 in 1000 GT, or 0,25 % BCM as comparison
Text: 25 GT eines Produktes gemäß Beispiel 1 werden zu 975 GT einer üblichen Holzschutzmittelformulierung gegeben, die zusammengesetzt ist aus 140 GT eines handelsüblichen Alkyldharzes, 4 GT Zinknaphthenat als Trockner, 4 GT eines handelsüblichen Hautverhütungsmittels, 30 GT Butyldiglykol und 797 GT Testbenzin 60.
Die Wirksamkeit der so biozid ausgerüsteten Holzschutzmittelformulierung gegen holzverblauende Pilze wird nach der Mündener Streifenmethode [H. Butin, Farbe und Lack, 71 (1965), 373] geprüft. Es ergibt sich eine bewuchsfreie Eindringtiefe von 3 bis 4 mm.
Zum Vergleich wird die oben angegebene übliche Holzschutzmittelformulierung mit 0,25 % Benzimidazolcarbaminsäuremethylester versetzt und unter gleichen Bedingungen geprüft. Es werden nur Eindringtiefen von 0,5 mm festgestellt.

Solubility in solvents = type: physicochemical; conditions: read-out: Löslichkeit
Text: Zum Vergleich : Die Löslichkeit von BCM beträgt in Wasser 6 ppm und in Butanol 600 ppm.

With `COC(=O)Nc1nc2ccccc2[nH]1` [II, Benzimidazolcarbaminsäuremethylester] the “bewuchsfreie Eindringtiefe” value (holzverblauende Pilze) was 0,5 mm, the solubility (Solubility in solvents; organic solvent or mixture, in Butanol) was 600 µg/mL (≈ 3140 µM) and the solubility (Solubility in solvents; water, in Wasser) was 6 µg/mL (≈ 31.4 µM).
